Records with an inconclusive call do not appear.

For this test, the target named is Virion infectivity factor (Human immunodeficiency virus type 1 group M subtype B (isolate BH10)) + Virion infectivity factor (Human immunodeficiency virus type 1 group M subtype B (isolate BRU/LAI)) + Virion infectivity factor (Human immunodeficiency virus type 1 group M subtype B (isolate PCV12)) + Virion infectivity factor (Human immunodeficiency virus type 1 group M subtype B (isolate HXB2)) + DNA dC->dU-editing enzyme APOBEC-3G (Homo sapiens) (UniProt P69720+P69721+P69722+P69723+Q9HC16). Nature of the test: HIV-1 Vif–A3G interaction blockers – biochemical, TR-FRET, GST-Vif 1-94, biotin-A3G peptide, dose response retest, primary screen (AID 1117319).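 Also: Vif residues 1-94 fused to GST binding biotinylated APOBEC3G peptide 110-148.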 The settings on record: TR-FRET GST-Vif / biotin-A3G peptide binding.
For the molecule `Nc1cc(N)c(OCC(F)(F)F)cc1OCC(F)(F)F`, the IC50 was 9.47 µM.
To `CCCSC1=N/C(=C\C=C\c2ccco2)C(=O)S1` belongs 3.79 µM.
The figure for `COc1ccc(N2CCN(C(=O)COc3ccccc3)CC2)cc1` is 76.9 µM; for `COCCn1nnnc1C(c1cc2cc(OC)c(OC)cc2[nH]c1=O)N1CCN(c2ccc(O)cc2)CC1` (centres undefined) it is 4.8 µM.
As for `O=C(O)CSc1c2c(nc3cc(C(=O)Nc4cccc(C(F)(F)F)c4)ccc13)CCC2`, the IC50 was 13.4 µM.
The figure for `O=[N+]([O-])c1ccccc1NC(=S)N/N=C/c1ccc(O)c(O)c1` is 4.06 µM; for `Cc1c(N=C2C=C(Br)C(=O)C(Br)=C2)c(=O)n(-c2ccccc2)n1C` it is 14.1 µM; for `Cc1ccc(-n2c(-c3cc(-c4ccco4)[nH]n3)n[nH]c2=S)c(Br)c1` it is 6.39 µM.
With `CCc1cc(C=NC2CCCCC2)c(O)s1`, the IC50 is 77.7 µM.
To `COc1cccc(C=Nc2cc(C(C)C)c(O)cc2C)c1O` belongs 34.2 µM.
The figure for `CCOc1cccc(CNc2ccc(O)cc2)c1OCc1ccccc1Cl` is 6.61 µM; for `CC(=O)OC(C)C1C2=C(C(=O)CC1(C)O)C(=O)c1c(ccc(-c3ccc4c(c3O)C(=O)C3=C(C4=O)C(C(C)OC(C)=O)C(C)(O)CC3=O)c1O)C2=O` (centres undefined) it is 0.73 µM.
To `S=c1nc(-c2ccc(Br)cc2)oc2c1CCCC2` belongs 61.7 µM; to `O=C1NC(c2ccc(Br)cc2)=N/C1=C/c1ccco1`, 7.41 µM; to `COc1ccc(NCc2nc3ccccc3n2CCOc2ccccc2)cc1`, 49 µM.
With `C/C(=N\Nc1ccc(Cl)c(C(=O)O)c1)c1ccc[nH]1`, the concentration for half-maximal inhibition (IC50) was 8.87 µM.
In the case of `Cc1ccc2cc(CN(Cc3nnnn3Cc3ccco3)CC3CCCO3)c(=O)[nH]c2c1C` (centres undefined), the IC50 was 34.4 µM.
To `CCOC(=O)C1CCCN(C(=O)c2cc(-c3ccco3)nc3ccccc23)C1` (centres undefined) belongs 2.64 µM; to `Oc1cc2c(cc1O)[C@@H](c1ccccc1)CNCC2`, 48.1 µM; to `O=C1C2C3C=CC(C3)C2C(=O)N1CNc1ccc(O)cc1` (centres undefined), 2.78 µM.
The figure for `CN1CCN(c2ccc(N)cc2)CC1` is 15.6 µM.
To `COc1cccc(NS(=O)(=O)c2ccc3c(c2)C2C=CCC2C(c2ccc(C(=O)O)cc2)N3)c1` (centres undefined) belongs 3.32 µM; to `Cc1cc(C(=O)CSc2nc3ccccc3c(=O)[nH]2)c(C)n1C`, 31.6 µM.
For the molecule `O=C(O)c1cccc(CSc2nnc(COc3ccccc3)o2)c1`, the IC50 was 88.2 µM.
The figure for `[O-][n+]1onc2c1CCc1c-2nc(-c2ccccc2)n1OCc1ccccc1` is 76.9 µM; for `O=C(Nc1ccccc1-c1nnn(CC(=O)N2CCc3ccccc3C2)n1)C1CCC1` it is 91 µM.
To `O=C(NNC(=O)c1ccccc1F)c1cccc(-n2cccc2)c1` belongs 8.55 µM; to `CC(C)(CS(=O)(=O)[O-])NC(=O)CC[N+](C)(C)CCO`, 1.5 µM.
To `COCOC1CCC2C3CCC4=CC(=O)CCC4=C3C=CC12C` (centres undefined) belongs 23.2 µM.
As to `Cc1cc(C)c(S(=O)(=O)N2CCCCC2)c(C)c1N(C)S(=O)(=O)c1ccc(Cl)cc1`, the half-maximal inhibitory concentration (IC50) is 13.2 µM.
To `CNc1ccc(Br)cc(C(=O)/C=C/c2cccc(OC)c2OC)c1=O` belongs 4.1 µM; to `CN(C)c1ccc(N2C(=O)CSC2=S)cc1`, 8.37 µM.
To `CCCC(=O)Nc1ccc(Br)cn1` belongs 65.1 µM; to `C=CCN=c1scc(C)n1/N=C/c1ccc(O)c(O)c1`, 15.4 µM.
To `CC1=C/C(=N\OS(=O)(=O)c2ccccc2)C=CC1=O` belongs 16.7 µM; to `O=C(CN1CCN(c2ccccc2O)CC1)Nc1ccc2c(c1)CCC2`, 50.8 µM; to `c1ccc2c3c([nH]c2c1)CNCC3`, 84.2 µM.
On to `O=C(NCCc1c[nH]c2ccccc12)c1ccc(S(=O)(=O)NCc2ccco2)cc1`, for which the IC50 was 33.3 µM.
To `O=C(O)CCc1ccc(-c2cccs2)n1-c1ccc(C(=O)O)cc1` belongs 80.6 µM.

By IC50 is commonly meant the concentration at which inhibition is half-maximal.

(Values after PubChem BioAssay AID1117319 (Southern Research Institute, 2015).)
